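Five compound concentrations were applied to cells in 96-well plates for 48 hours; endpoints were derived by simple linear interpolation of the resulting dose-response curve. GI50 = concentration required for 50% inhibition of growth. TGI denotes the concentration required for complete inhibition of growth.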
What was measured:
Experiment in all cases: NCI-60 cell line screen, 48 h
[1] = test system: RPMI-8226 leukemia
[2] = test system: NCI-H522 lung
[3] = test system: SK-MEL-2 melanoma
[4] = test system: SF-295 CNS
[5] = test system: 786-0 renal
[6] = test system: U251 CNS
[7] = test system: UACC-257 melanoma
[8] = test system: SR leukemia
[9] = test system: SNB-75 CNS
[10] = test system: OVCAR-8 ovarian

| SMILES | TGI [1] [µM] | TGI [2] [µM] | TGI [3] [µM] | TGI [4] [µM] | TGI [5] [µM] | TGI [6] [µM] | TGI [7] [µM] | TGI [8] [µM] | TGI [9] [µM] | TGI [10] [µM] | GI50 [1] [µM] | GI50 [2] [µM] | GI50 [3] [µM] | GI50 [4] [µM] | GI50 [6] [µM] | GI50 [7] [µM] | GI50 [8] [µM] | GI50 [9] [µM] | GI50 [10] [µM] |
| --- | --- | --- | --- | --- | --- | --- | --- | --- | --- | --- | --- | --- | --- | --- | --- | --- | --- | --- | --- |
| O=c1c2ccccc2nc(Nc2cccc(Cl)c2)n1/N=C/C=C/c1ccccc1 | > 100 | > 100 | > 100 | > 100 | > 100 | > 100 | > 100 | > 100 | > 100 | > 100 |  |  |  |  |  |  |  |  |  |
| CC1(C)C=C(S(=O)(=O)c2ccccc2)Oc2ccccc2O1 | > 100 | > 100 | > 100 | > 100 | > 100 | > 100 | > 100 | > 100 | 82.3 | > 100 |  |  |  |  |  |  |  |  |  |
| Nc1ccc(S(=O)(=O)Nc2nc3ccccc3nc2N2CCCCC2)cc1 | > 100 | > 100 | > 100 | > 100 | > 100 | > 100 | > 100 | > 100 | > 100 | > 100 |  |  |  |  |  |  |  |  |  |
| CCNC(=O)C1CCCN1C(=O)C(CCCN=C(N)N)NC(=O)C(CC(C)C)NC(=O)C(Cc1c[nH]c2ccccc12)NC(=O)C(Cc1ccc(O)cc1)NC(=O)C(CO)NC(=O)C(Cc1c[nH]c2ccccc12)NC(=O)C(Cc1cnc[nH]1)NC(=O)C1CCC(=O)N1 (stereo not given) | > 100 | > 100 | > 100 | > 100 | > 100 | > 100 | > 100 | > 100 | > 100 | > 100 |  |  |  |  |  |  |  |  |  |
| COC1(OC)CCCCC2c3cccc(OC(C)=O)c3C21OC(C)=O (stereo not given) | > 100 | > 100 | > 100 | > 100 | > 100 |  | > 100 | > 100 | > 100 | > 100 |  |  |  |  |  |  |  |  |  |
| O=C(Nc1cccc(O)c1)C(=O)C(C(=O)c1ccccc1F)C1OC(=O)c2ccccc21 (stereo not given) | 87.8 | 63.9 | 62.2 | > 100 |  | 26.9 | > 100 | 83.7 | 53.1 | 30.5 |  |  |  |  |  |  |  |  |  |
| Cc1c2ncccc2cc2oc3ccccc3c(=O)c12 | > 100 | > 100 | > 100 | > 100 | > 100 |  | > 100 | > 100 | > 100 | > 100 |  |  |  |  |  |  |  |  |  |
| CNC(=O)N(CCC#N)[C@H]1CCCC[C@@H]1N(C(=O)NC)c1ccccc1 | > 100 | > 100 | > 100 | > 100 | > 100 | > 100 | > 100 | > 100 | > 100 | > 100 |  |  |  |  |  |  |  |  |  |
| COc1ccc2cc(NC(=O)N/N=C\c3ccc(Cl)cc3)ccc2c1 | > 100 | > 100 | > 100 | > 100 | > 100 | > 100 | > 100 | > 100 | > 100 | > 100 |  |  |  |  |  |  |  |  |  |
| O=C(Nc1ccccc1C(=O)NCCCO)/C(=C/c1ccccc1O)NC(=O)c1ccccc1 | > 100 | > 100 | > 100 | > 75.8 | > 89.9 | > 81.6 | > 100 | > 100 | > 83.9 | > 64.6 |  |  |  |  |  |  |  |  |  |
| N#Cc1c(-c2ccc(F)cc2)nc(N/N=C/c2c[nH]c3ccccc23)nc1N1CCOCC1 | > 100 | 7.15 | 17.7 | 4.29 |  | 17.7 | 4.87 | 24 | 38.4 | 93.8 | 3.35 | 2.59 | 3.5 | 1.89 | 2.16 | 2.2 | 0.215 | 3.45 | 7.63 |
| CCCCN=C(NC#N)NCCCC | > 100 | > 100 | > 100 | > 100 | > 100 | > 100 | > 100 | > 100 | > 100 | > 100 |  |  |  |  |  |  |  |  |  |
| COCC1OC(N2C(=O)NC(=O)[C@@H]3C=C4CCCCC4=C[C@@H]32)C(OC)C1OC (stereo not given in full) | > 100 | > 100 | > 100 | > 100 | > 100 | > 100 | > 100 | > 100 | > 100 | > 100 |  |  |  |  |  |  |  |  |  |
| CSc1nc2c(c(=O)n1C)N=C(c1ccccc1)[C@H](C(CC(=O)c1ccccc1)c1ccccc1)C(c1ccccc1)N2 (stereo not given in full) | > 100 | > 100 | > 100 | > 100 | > 100 | > 100 | > 100 | > 100 | > 100 | > 100 |  |  |  |  |  |  |  |  |  |
| CN(C)S(=O)(=O)Nc1nnc(S(N)(=O)=O)s1 | > 100 | > 100 | > 100 | > 100 | > 100 | > 100 |  | > 100 | > 100 |  |  |  |  |  |  |  |  |  |  |
| CCN1CCC(O)(C(C(=O)O)c2ccccc2)CC1 (stereo not given) | > 100 | > 100 | > 100 | > 100 |  | > 100 | > 100 | > 100 | > 100 | > 100 |  |  |  |  |  |  |  |  |  |
| COC(=O)/C(=N/NC(=O)C[N+](C)(C)C)C(C(=O)OC)C(=O)C(=O)Nc1ccc(F)cc1 (stereo not given) | > 100 | > 100 | > 100 | > 100 | > 100 | > 100 | > 100 | > 100 | > 100 |  |  |  |  |  |  |  |  |  |  |
| Cc1cn([C@@H]2C[C@H]2CO)c(=O)[nH]c1=O | > 100 | > 100 | > 100 |  | > 100 | > 100 | > 100 | > 100 | > 100 | > 100 |  |  |  |  |  |  |  |  |  |

— PubChem BioAssay (NCI)
